The text below walks through data of US10980866B2, “Alpha-1 anti-trypsin for treating liver diseases” (Hadasit Medical Research Services and Development Ltd., priority 2014, dated 2021).

For experiment [1], the system named is ConA-induced hepatitis mouse model. Kind of experiment: Concanavalin A-induced hepatitis model, liver histology score (H&E). The settings on record: 15 hours following ConA; for Infiltrating leukocytes (%) / Lymphocyte adhesion (%) / Necrotic lesions (%): histological score, mean ± SD, AAT 0.35 mg/mouse IP, Dexamethasone 0.35 mg/mouse. In kind it is in vivo, mice (C57BL/6). The procedure: (§1) Animals—Male C57BL/6 mice (11-12 weeks old) were obtained from Harlan Laboratories (Jerusalem, Israel) and were maintained in the Animal Core of the Hadassah-Hebrew University Medical School. The mice received standard laboratory food and water ad libitum and were housed in a 12-hour light/dark cycle. All animal experiments were performed according to the guidelines and with the approval of the Hebrew University-Hadassah Institutional Committee for the Care and Use of Laboratory Animals.
(§2) Concanavalin A-induced hepatitis model—Concanavalin A (ConA, MP Biomedicals, USA) was dissolved in a solution consisting of 50 mM Tris pH 7, 150 mM NaCl, and 4 mM CaCl2 and injected into the tail vein at a dose of 500 μg/mouse (15 mg/kg) in 250 μl. Mice were sacrificed 15 hours following ConA injection. Mice (n=5-6 mice per group) were administered orally or intraperitoneally (IP), as indicated, DDW (control); Dexamethasone (0.35 mg/mouse, control); or alpha-1 anti-trypsin (AAT, Sigma A-9024) at a dose of 0.2, 0.35, 1.0 or 2.0 mg per mouse, 2 hours prior ConA treatment.
Histology—Mice were sacrificed at the indicated times and their livers were harvested. Paraffin-embedded liver sections were prepared from and sliced into 4-5 μm-thick sections and stained with hematoxylin-eosin (H&E). The sections were scored according to the extent of liver damage using a previously described method^13, 14 with the following parameters: lymphocyte adhesion to hepatic and portal veins and sinusoids, the number of infiltrating leukocytes into the liver parenchyma, and the number of necrotic lesions (all per 10× high-power field).

For experiment [2] the test system is unchanged. Kind of experiment: Concanavalin A-induced hepatitis model, serum liver enzymes (ALT, AST). The format is in vivo, mice (C57BL/6). As for the experimental part: as §1, §2
(§3) Assessment of Liver toxicity—Serum was obtained from individual mice at the indicated times and the levels of aspartate aminotransferase (AST) and alanine aminotransferase (ALT) were determined using a standard automated analyzer.

Experiment [3] has the same test system. The experiment in a line: Concanavalin A-induced hepatitis model, serum IFN-γ by ELISA. The settings on record: 15 hours following ConA. In kind it is in vivo, mice (C57BL/6). The procedure:
as §1, §2
Cytokine measurement—Serum IFN-γ levels were measured at the indicated times in each animal using a commercially available ELISA kit (Quantikine, R&D Systems, MN, USA) according to manufacturer's instructions.
A general note: ELISA stands for enzyme-linked immunosorbent assay.

Experiment [4] concerns APAP-mediated liver damage mouse model. Kind of experiment: Acetaminophen-mediated hepatotoxicity model, serum liver enzymes. The format is in vivo, mice (C57BL/6). The settings on record: 2 hours following APAP, 24 hours following APAP, vs control (DDW). As for the experimental part: as §1
Acetaminophen-mediated hepatotoxicity model—Acetaminophen (APAP)-mediated hepatotoxicity was induced in mice via oral administration of 4 mg APAP (Tiptipot, CST). Mice (n=5 mice per group) were administered IP DDW (control) or AAT at a dose of 0.25 or 0.5 mg per mouse, 2 hours following administration of APAP
as §3

Experiment [5] concerns high fat diet (HFD) mouse model. Kind of experiment: High fat diet (HFD) with or without methionine choline deficient diet (MCD) fatty liver model. In kind it is in vivo, mice (C57Bl). Conditions: Example 3. The procedure:
The effect of AAT on fatty liver disease is assessed by determining liver toxicity in a high fat diet (HFD) with or without methionine choline deficient diet (MCD) mouse model.
Blood is taken from the tail vein at the indicated time points and analyzed for:
Mice are sacrificed 14 weeks following beginning of treatment and analyzed for: • Weight • Epididymal fat weight (eq to visceral fat in humans) • MRI—to look at steatosis • ALT, AST • Serum for cytokines-what cytokines: IL2, 6, 4, 5, 12, IFN (gamma), TNF and TGF. IL-10, il-4, il-13, mcp1, • Adipokine—adiponectin which is anti-inflammatory adipokine and visfalatin • CBC including eosinophils • FACS for subsets of T cells • Assessment of eotaxin levels in the liver and in the adipose tissue by mRNA • Collect serum for Lipidomics to be conducted by OWL in Spain • Collect serum for mRNA of lymphocytes, to be performed in the USA by Ilumina sequencing machines • Liver fat quantification • Liver biopsy followed by histological evaluation: • 1. H&E staining • 2. Fat staining (IHC): Oil-R-O (frozen sections) • X2 non stained slides (paraffin embedded) • Snap freeze −80, ×3 samples (from each animal). • Assessment of fibrosis based on staining

For experiment [6], the target named is 1-AZT, a misfolded but functionally active mutant of α1-antitrypsin (Homo sapiens, UniProt P01009, E366K). Conditions: model cell culture system; cited from earlier work.
Setting [7] is: AAT orally administered, 2 hours prior ConA, 15 hours following ConA.

Entries after “also recorded” stand apart in the source; their conditions may differ.

1-AZT, a misfolded but functionally active mutant of α1-antitrypsin, sequence (P01009 25-418 E366K): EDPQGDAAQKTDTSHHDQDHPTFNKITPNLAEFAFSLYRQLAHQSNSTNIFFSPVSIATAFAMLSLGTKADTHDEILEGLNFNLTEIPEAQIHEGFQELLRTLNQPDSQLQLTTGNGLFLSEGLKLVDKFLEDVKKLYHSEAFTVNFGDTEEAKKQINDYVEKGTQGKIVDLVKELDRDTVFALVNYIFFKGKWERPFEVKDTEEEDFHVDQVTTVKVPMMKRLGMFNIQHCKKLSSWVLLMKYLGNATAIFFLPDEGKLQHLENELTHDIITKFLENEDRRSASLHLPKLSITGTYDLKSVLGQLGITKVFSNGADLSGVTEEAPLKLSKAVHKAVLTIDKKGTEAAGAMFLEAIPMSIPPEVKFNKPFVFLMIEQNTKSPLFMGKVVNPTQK

For the compound `C[C@@H]1C[C@H]2[C@@H]3CCC4=CC(=O)C=C[C@]4(C)[C@@]3(F)[C@@H](O)C[C@]2(C)[C@@]1(O)C(=O)CO` [Dexamethasone, reference compound], in experiment [1], the “Infiltrating leukocytes (%)” value is listed as 0.58 ± 2.5%, the “Lymphocyte adhesion (%)” value is listed as 0.58 ± 2.5% and the “Necrotic lesions (%)” value came out at 0%.

Regarding alpha-1 anti-trypsin [AAT], the “serum levels of the ALT liver enzyme” value in experiment [2] (AAT 0.35 mg per mouse IP, 2 hours prior ConA, 15 hours following ConA, p<0.005) is recorded as “Statistically significant reduction”; in experiment [2] (AAT 1 mg per mouse IP, 2 hours prior ConA, 15 hours following ConA, p<0.005), “Statistically significant reduction”. Moreover, in experiment [2] (AAT 0.35 mg per mouse, compared to 100% in control (DDW) group, p<0.005), the “mice developing severe disease (severe hepatitis, serum ALT more than 1000 IU)” value is reported as 50%. For the same compound, the ALT serum levels result in experiment [2] (AAT 2 mg per mouse IP, 2 hours prior ConA, 15 hours following ConA) is “no effect”. For the same compound, the AST levels result is reported as “corresponded to the ALT levels” in experiment [2] (AAT IP, 2 hours prior ConA, 15 hours following ConA (FIG. 2)) and “no effect” in experiment [2] (setting [7]). In experiment [2] (AAT at all doses tested), the “number of mice developing severe disease (serum ALT more than 1000 IU)” value is “reduced the number of mice developing severe disease”. Also, the ALT levels result in experiment [2] (setting [7]) is “no effect”. Also, the “overall effect on the ConA-induced hepatitis model” value in experiment [2] (IP administration of AAT) is “dose-dependent beneficial effect”. The “serum IFNγ levels” value in experiment [3] (AAT 1.0 mg per mouse IP, p<0.005) is reported as “significant reduction”; in experiment [3] (AAT high dose 2.0 mg per mouse), “no significant effect”; in experiment [3] (AAT low dose 0.35 mg per mouse), “no significant effect”. Also, the “number of infiltrating leukocytes into the liver parenchyma (in words)” value in experiment [1] (AAT 0.35 mg per mouse IP) is recorded as “significant improvement; also recorded: reduced leukocyte infiltration”. In experiment [1], the “Infiltrating leukocytes (%)” value was determined as 2.45 ± 8.33%. In experiment [1], the “Lymphocyte adhesion (%)” value is 2.8 ± 11.89%. Also, the “Necrotic lesions (%)” value in experiment [1] came to 1 ± 1.67%. Further, the “serum levels of the AST liver enzyme” value in experiment [4] (AAT 0.25 mg per mouse IP) and in experiment [4] (AAT 0.5 mg per mouse IP) was “decrease” each time. Besides, the “symptoms of fatty liver disease” value in experiment [5] is given as “ameliorated symptoms of fatty liver disease”.

Regarding `O=C(O)CCCc1ccccc1` [PBA, 4-phenylbutyric acid], the “secretion of 1-AZT” value in experiment [6] is recorded as “marked increase”.
